This is an account of results in US12480163B2, “Compositions and methods for identification assessment, prevention, and treatment of Ewing sarcoma using TP53 dependency biomarkers and modulators” (Dana-Farber Cancer Institute, Inc., priority 2018, dated 2025).

Data set [1] concerns the target T1, p53-MDM4 complex (Homo sapiens, UniProt O15151).
T1 construct: endogenous in cells; host or cells: TC32 Ewing sarcoma cells (TP53 wild-type), lysed in NP-40 buffer
T1 sequence (O15151 1-490): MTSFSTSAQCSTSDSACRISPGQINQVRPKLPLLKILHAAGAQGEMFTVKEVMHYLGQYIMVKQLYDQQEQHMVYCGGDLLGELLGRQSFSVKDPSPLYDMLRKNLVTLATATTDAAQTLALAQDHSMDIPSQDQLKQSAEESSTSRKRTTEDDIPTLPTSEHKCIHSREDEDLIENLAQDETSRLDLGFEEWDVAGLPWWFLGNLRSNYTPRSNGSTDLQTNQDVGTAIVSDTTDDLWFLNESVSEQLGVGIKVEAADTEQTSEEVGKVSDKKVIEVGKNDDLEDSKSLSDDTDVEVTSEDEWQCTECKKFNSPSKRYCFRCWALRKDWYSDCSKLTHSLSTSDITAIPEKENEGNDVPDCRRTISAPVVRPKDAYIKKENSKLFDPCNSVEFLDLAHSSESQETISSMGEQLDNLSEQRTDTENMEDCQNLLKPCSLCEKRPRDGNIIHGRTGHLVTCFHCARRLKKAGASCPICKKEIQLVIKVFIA
The experiment in a line: MDM4 immunoprecipitation from TC32 cell lysates, p53 and MDM4 Western blot. The data set is classed as binding. Particulars: TC32 lysates after RG7388 pre-treatment, 20 μM compound. The method, then: g. Immunoprecipitation Experiments
Five million TC32 cells were treated with either 10 μM RG7388 or vehicle control for 4 h. Cells were lysed in buffer A (150 mM NaCl, 50 mM Tris, and 0.5% NP-40, pH 7.4) and combined with anti-MDM4 antibody (A300-287A; Bethyl Laboratories) in the presence of 20 μM RG7388, ATSP-7041, or vehicle control in a total volume of 1 ml, rotating at 4° C. for 16 h. Subsequently, 50 μl washed Protein AG beads (sc-2003; Santa Cruz) were added and the mixture was incubated for 1 h rotating at 4° C. Beads were washed three times in buffer A, and protein complexes were eluted by boiling in NuPage® LDS Sample Buffer (NP0007; Invitrogen) supplemented with DTT. Samples were analyzed by Western blot with antibodies against p53 DO-1 (sc-126; Santa Cruz) and MDM4 (A300-287A; Bethyl Laboratories).

The subject of data set [2] is MDM2 protein levels. The experiment in a line: Western immunoblotting of MDM2 in TP53 mutated cell lines A673 and EWS502. The data set is classed as cell-based. Particulars: TP53 mutated cell lines A673 and EWS502, 1 μM; 4 h. The procedure:
(§1) Whole-cell lysates were extracted in cell lysis buffer (Cell Signaling) supplemented with EDTA-free protease inhibitors and PhosSTOP™ phosphatase inhibitors (Roche). Western immunoblotting was performed using standard techniques. Primary antibodies used included anti-MDM2 (ab178938; Abcam), anti-MDM2 (86934; Cell Signaling), anti-MDM4 (A300-287A; Bethyl Laboratories), anti-p53 (2527S; Cell Signaling), anti-p21 (2946S; Cell Signaling), anti-Vinculin (18058; Abcam), anti-Wip1 (A300-664A; Bethyl Laboratories), anti-pSer15-p53 (9284; Cell Signaling), anti-USP7 (A300-033A; Bethyl Laboratories), and anti-Tubulin (cp06; CalBiochem).
(In general: A western blot detects proteins with antibodies after separation by electrophoresis.)

Data set [3] has as its system MDM2, p53, and p21 protein levels. The experiment in a line: Western immunoblotting of MDM2, p53, p21 in TP53 wild-type Ewing sarcoma cell lines. The data set is classed as cell-based. Particulars: for MDM2 protein levels, combination of ATSP-7041 and P5091 compared with ATSP-7041 alone: TC32 and TC138 cells, 2 d. The procedure: as §1
Data set [4] deals with TP53 wild-type Ewing sarcoma cell lines. The data set is described as follows: Annexin V staining, flow cytometry (cell death). The data set is classed as cell-based. As to conditions: TC32 and CHLA258; 2 d ATSP-7041 (2 μM, 4 μM) or P5091 (6.5 μM, 8 μM), 3 d GSK2830371 (15 μM). The method, then:
Cell death was measured using flow cytometric analysis of Annexin V staining according to the manufacturer's instructions (eBioscience). Data analysis was completed using Flowjo 7.6 software (Treestar).
On the technique in general: A flow cytometer gives signals particle by particle.

The test system is the same in data set [5]. The experiment in a line: CellTiter-Glo cell viability assay, TP53 wild-type Ewing sarcoma cell lines. The data set is classed as cell-based. Particulars: treated for 3 d. The method, then: (§2) Cell viability was assessed using the CellTiter-Glo® Luminescent Cell Viability Assay (Promega). Viability assays were performed after Ewing sarcoma cell lines were infected with sgRNAs targeting TP53, MDM2, MDM4, PPM1D, or USP7 or treated with ATSP-7041, ATSP-7342, GSK2830371, P5091, XL-188, or vehicle control.

Data set [6] deals with TP53 knockout cells. The data set is described as follows: CellTiter-Glo cell viability assay, TP53 knockout cells. The data set is classed as cell-based. As to conditions: TP53 knockout cells vs control cells, treated for 3 d. The method, then:
Lentivirus was produced by transfecting HEK-293T cells with the pLentiV2 vector (Addgene plasmid 52961) and the packaging plasmids pCMV8.9 and pCMV-VSVG according to the FuGENER 6 (Roche) protocol. For lentiviral transduction, Ewing sarcoma cells were incubated with 2 ml of virus and 8 μg/ml of polybrene (Sigma-Aldrich). Cells were selected in puromycin (Sigma-Aldrich) 48 h after infection for single knockout experiments. For dual knockout experiments, PPM1D, USP7, and MDM4 sgRNA sequences were cloned into a LentiV2 vector with a blasticidin selection marker (Addgene plasmid 83480).
d. sgRNA Sequences sgRNAs were designed using the Broad Institute's sgRNA designer tool. The following sequences were used as control or to target the respective genes: control sgRNA, 5′-[…]-3′ (SEQ ID NO: 125); sgMDM2 2: 5′-[…]-3′ (SEQ ID NO: 126); sgMDM2 5: 5′-[…]-3′ (SEQ ID NO: 127); sgMDM4 4: 5′-[…]-3′ (SEQ ID NO: 128); sgMDM4 6: 5′-[…]-3′ (SEQ ID NO: 129); sgUSP7 1: 5′-[…]-3′ (SEQ ID NO: 130); sgUSP7 2: 5′-ACCATACCCAAATTATTC CG-3′ (SEQ ID NO: 131); sgPPMID 1: 5′-[…]-3′ (SEQ ID NO: 132); sgPPMID 2: 5′-[…]-3′ (SEQ ID NO: 133); sgTP53 1: 5′-[…]-3′ (SEQ ID NO: 134); sgTP53 2: 5′-[…]-3′ (SEQ ID NO: 135); sgTP53 4: 5′-[…]-3′ (SEQ ID NO: 136); and sgTP53 5: 5′-[…]-3′ (SEQ ID NO: 137). e. Protein Extraction and Immunoblotting
as §2
(ATP-based viability assays read luminescence as a measure of living cells.)

For data set [7], the target named is T2, Wip1 (Homo sapiens, UniProt O15297).
T2 construct: Whole-cell lysates were extracted in cell lysis buffer (Cell Signaling); endogenous in cells; host or cells: TP53 wild-type Ewing sarcoma cell lines
T2 sequence (O15297 1-605): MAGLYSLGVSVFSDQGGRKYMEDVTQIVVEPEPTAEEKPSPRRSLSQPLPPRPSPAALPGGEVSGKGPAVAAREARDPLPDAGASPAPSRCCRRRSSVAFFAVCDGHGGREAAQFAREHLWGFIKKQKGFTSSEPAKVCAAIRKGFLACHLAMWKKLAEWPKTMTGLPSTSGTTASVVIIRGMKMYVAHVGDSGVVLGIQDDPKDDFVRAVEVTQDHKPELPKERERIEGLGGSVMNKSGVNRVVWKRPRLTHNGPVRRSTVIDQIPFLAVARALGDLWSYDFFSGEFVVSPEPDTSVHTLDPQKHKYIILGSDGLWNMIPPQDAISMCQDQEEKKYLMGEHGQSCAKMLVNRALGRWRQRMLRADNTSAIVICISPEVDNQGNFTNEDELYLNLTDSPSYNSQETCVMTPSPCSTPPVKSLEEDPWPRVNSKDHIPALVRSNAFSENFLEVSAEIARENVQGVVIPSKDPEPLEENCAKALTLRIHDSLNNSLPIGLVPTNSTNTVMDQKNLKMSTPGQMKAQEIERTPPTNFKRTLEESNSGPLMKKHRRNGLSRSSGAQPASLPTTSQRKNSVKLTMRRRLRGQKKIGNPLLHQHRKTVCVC
The experiment in a line: Western immunoblotting of Wip1 and pSer15-p53. The data set is classed as cell-based. Particulars: Western blot. The procedure:
as §1

Where [8] appears, read: TP53 wild-type Ewing sarcoma cell lines, micromolar concentrations.

“Also recorded” adds a separate entry of the source.

`COc1cc(C(=O)O)ccc1NC(=O)[C@@H]1N[C@@H](CC(C)(C)C)[C@](C#N)(c2ccc(Cl)cc2F)[C@H]1c1cccc(Cl)c1F` [RG7388]: the “disruption of p53-MDM4 complex (MDM4 immunoprecipitation)” value in data set [1] was “does not interrupt binding; also recorded: unable to dissociate”. Besides, the MDM2 protein levels result in data set [2] is reported as “no response; also recorded: no increase in MDM2 protein”; in data set [3] (TP53 wild-type cell lines TC32 and TC138, 1 μM, 4 h), “increase in MDM2 protein levels”.

Consider `CC(=O)c1cc([N+](=O)[O-])c(Sc2cccc(Cl)c2Cl)s1` [P5091], for which the “cell death measured by Annexin V staining” value in data set [4] was “triggers cell death; also recorded: P5091-induced cell death”. In data set [5] (setting [8]), the “cell viability, normalized to vehicle control” value (from here on “cell viability, normalized”) is listed as “reduce viability; also recorded: relatively more cytotoxic”. The entries for the “MDM2 protein levels, combination of ATSP-7041 and P5091 compared with ATSP-7041 alone” value in data set [3] and in data set [3] (listed as P0951) were “decreased MDM2 protein levels; also recorded: decreased the level of MDM2 protein” and “suppresses the feedback up-regulation of MDM2”, respectively. Further, the “p53 and p21 protein levels” value in data set [3] (TP53 wild-type cells TC32 and TC138, Western blot) was “increase in p53 and p21 protein levels; also recorded: increased p53 and p21 protein levels in a time-dependent fashion”. Further, in data set [6], the “effect of TP53 knockout on the cytotoxic effect of the compound (viability)” value (“effect of TP53 knockout” for short) is recorded as “did not rescue”.

In the case of `Cc1ncc(Cl)cc1NCc1ccc(C(=O)N[C@@H](CC2CCCC2)C(=O)NC2CC2)s1` [GSK2830371, 5-[[(5-Chloro-2-methyl-3-pyridinyl)amino]methyl]-N-[(1S)-1-(cyclopentylmethyl)-2-(cycloprpylamino)-2-oxoethyl]-2-thiophenecarboxamide], in data set [4], the “cell death measured by Annexin V staining” value is given as “triggers cell death; also recorded: GSK2830371-induced cell death”. In addition, the “cell viability, normalized” value in data set [5] (setting [8]) is “reduce viability; also recorded: notable increase in susceptibility”. Moreover, the “phosphorylation of Serine 15 of p53 (pSer15-p53)” value in data set [7] (single agent) was “increased pSer15-p53; also recorded: triggered a surge in phosphorylation of Serine 15 of p53”. Besides, the Wip1 protein levels result in data set [7] (time-dependent) is listed as “decreased protein levels of Wip1; also recorded: reduced the protein levels of Wip1”. In data set [6], the “effect of TP53 knockout” value was “less effective”.

Turning to `C[C@H](CC(=O)N1CCC(O)(Cn2cnc3cc(NC(=O)CCN4CCN(C)CC4)ccc3c2=O)CC1)c1ccccc1` [XL-188, (R)—N-(3-((4-hydroxy-1-(3-phenylbutanoyl)piperidin-4-yl)methyl)-4-oxo-3,4-dihydroquinazolin-7-yl)-3-(4-methylpiperazin-1-yl) propanamide], the results for the “cell viability, normalized” value in data set [5] (TC32 cells) and in data set [5] (setting [8]) were “especially robust effect” and “reduced viability predominantly in TP53 wild-type Ewing sarcoma cell lines”, respectively. Also, in data set [6], the “effect of TP53 knockout” value is “completely reversed the cytotoxic effect”.
